# Entries after “also recorded” stand apart in the source; their conditions may differ.
# How the values were obtained:
# [1] = thin layer chromatography (TLC) lipid II binding assay; details: iodine stain; FIG. 8 and FIG. 9
# Text: In FIG. 8 and FIG. 9, a thin layer chromatography (TLC) lipid II binding assay for native and modified nisin A and gallidermin is shown, respectively. The method of the present invention enables direct visualization for the loss of lipid II binding. […] Nisin is not as stable as gallidermin at higher temperatures.
# [2] = tested on: M. luteus; experiment: bioassay plate overlaid with M. luteus (bacterial clearing); type: cell-based; details: 5 μL spotted onto a plate overlaid with M. luteus; FIG. 6
# Protocol: We performed a 2-mercaptoethanol addition to mutacin 1140 at pH 7.3 in Tris buffer at room temperature for 2 hours. FIG. 5 is a RP-HPLC chromatogram of the native mutacin 1140, designated by the black line with triangles, overlaid on the chromatogram of the 2-mercaptoethanol modified mutacin 1140 (B-Me mutacin), which is designated by the grey line with circles. The modification changes the retention time of the native molecule to the left, a slightly more hydrophilic solvent (more water relative to acetonitrile). The large peak in the flow through was determined, by smell, to be 2-mercaptoethanol. The two small sharp peaks following the flow peak, which both have an absorbance in the 280 nm range, appears to be contaminants in the 2-mercaptoethanol solution. They also appeared in Nisin A modified by the same 2-mercaptoethanol labeling procedure. Nisin has no aromatic residues to account for this absorbance. […] In the future, these 2-mercatoethanol peaks will be removed by washing the sample with ice cold ether, which will extract the thiol compound leaving our peptide in solution. We spotted 5 μL of the native mutacin and the B-Me mutacin onto a plate overlaid with M. luteus. […] We also performed the same reaction with ethanethiol following the same procedure outline above. […]
Substance,lipid II binding (retention of lipid II at the origin of the TLC plate) [1],"bactericidal activity (bacterial clearing, inhibition of bacterial growth) [2]"
ethanethiol labeled nisin: nisin following addition of the organosulfur compound ethanethiol,maintains lipid II binding activity; also recorded: diminished capacity to retain lipid II at the origin,–
gallidermin,retain lipid II at the origin,–
mutacin 1140,–,bacterial clearing
nisin A,retain lipid II at the origin,–
